Key:
Aspergillus fumigatus = test: Expected efficacy of anti-fungal agents against various fungi (Table 4)
Blastomyces dermatitidis = test: as above
Candida species = test: as above
Coccidioides immitis = details: expected efficacy
Cryptococcus neoformans = test: Expected efficacy of anti-fungal agents against various fungi (Table 4)
Histoplasma duboisii = details: expected efficacy
Sporothrix schenckii = test: Expected efficacy of anti-fungal agents against various fungi (Table 4)
[1] = system: Trichophyton mentagrophytes; test: as above
Trichophyton rubrum = test: as above
Aspergillus niger = test: as above
Aspergillus terreus = test: as above
Leishmania donovani = test: as above
Clostridium perfringens = details: expected efficacy; Clostridium perfringens; Gram: anaer
Acinetobacter baumannii = test: Expected efficacy of anti-bacterial agents against various bacteria (Tables 5 and 6); details: Gram: neg
[2] = system: Acinetobacter calcoaceticus; test: as above; details: Gram: neg
Acinetobacter lwoffii = test: as above; details: Gram: neg
Bartonella bacilliformis = test: as above; details: Gram: neg
Bordetella pertussis = test: as above; details: Gram: neg
Brucella species = details: expected efficacy; Brucella species; Gram: neg
Campylobacter jejuni = test: Expected efficacy of anti-bacterial agents against various bacteria (Tables 5 and 6); details: Gram: neg
Citrobacter diversus = test: as above; details: Gram: neg
Citrobacter freundii = test: as above; details: Gram: neg
Enterobacter aerogenes = test: as above; details: Gram: neg
Enterobacter cloacae = test: as above; details: Gram: neg
Enterobacter sakazakii = test: as above; details: Gram: neg
Escherichia coli = test: as above; details: Gram: neg
Francisella tularensis = details: expected efficacy; Francisella tularensis; Gram: neg
Haemophilus ducreyi = test: Expected efficacy of anti-bacterial agents against various bacteria (Tables 5 and 6); details: Gram: neg
Haemophilus influenzae = test: as above; details: Gram: neg
[3] = system: Klebsiella (Calymmatobacterium) granulomatis; test: as above; details: Gram: neg
Klebsiella oxytoca = test: as above; details: Gram: neg
Klebsiella pneumoniae = test: as above; details: Gram: neg
Legionella pneumophila = details: expected efficacy; Legionella pneumophila; Gram: neg
Moraxella catarrhalis = test: Expected efficacy of anti-bacterial agents against various bacteria (Tables 5 and 6); details: Gram: neg
Morganella morganii = test: as above; details: Gram: neg
Neisseria gonorrhoeae = test: as above; details: Gram: neg
Neisseria meningitidis = test: as above; details: Gram: neg
Proteus mirabilis = test: as above; details: Gram: neg
Proteus vulgaris = test: as above; details: Gram: neg
Providencia rettgeri = test: as above; details: Gram: neg
Providencia stuartii = test: as above; details: Gram: neg
Pseudomonas aeruginosa = test: as above; details: Gram: neg
Pseudomonas fluorescens = test: as above; details: Gram: neg
Rickettsiae = details: expected efficacy; Rickettsiae; Gram: neg
Salmonella typhi = test: Expected efficacy of anti-bacterial agents against various bacteria (Tables 5 and 6); details: Gram: neg
Serratia marcescens = test: as above; details: Gram: neg
Shigella boydii = test: as above; details: Gram: neg
Shigella dysenteriae = test: as above; details: Gram: neg
Shigella flexneri = test: as above; details: Gram: neg
Shigella sonnei = test: as above; details: Gram: neg
Vibrio cholerae = test: as above; details: Gram: neg
Yersinia pestis = details: expected efficacy; Yersinia pestis; Gram: neg
Corynebacterium jeikeium = test: Expected efficacy of anti-bacterial agents against various bacteria (Tables 5 and 6); details: Gram: pos
[4] = system: Corynebacterium urealyticum; test: as above; details: Gram: pos
[5] = system: Methicillin resistant staph aureus (MRSA); test: as above; details: Gram: pos
[6] = system: Staphylococcus aureus (MSSA); test: as above; details: Gram: pos
Streptococcus pyogenes = test: as above; details: Gram: pos
[7] = system: gram-positive staphylococci and streptococci; details: general background statement; cited from earlier work
Fusarium species = test: Expected efficacy of anti-fungal agents against various fungi (Table 4)

With `CCC(C)n1ncn(-c2ccc(N3CCN(c4ccc(OC[C@H]5CO[C@](Cn6cncn6)(c6ccc(Cl)cc6Cl)O5)cc4)CC3)cc2)c1=O` (mixture of isomers) [Itraconazole] the “Efficacy of various antifungal agents” value (Aspergillus fumigatus) was “yes”, the “Efficacy of various antifungal agents” value (Blastomyces dermatitidis) was “yes” and the “Efficacy of various antifungal agents” value (Candida species) was “yes”. The “Efficacy of various antifungal agents” value (Coccidioides immitis) was “yes”, the “Efficacy of various antifungal agents” value (Cryptococcus neoformans) was “yes” and the “Efficacy of various antifungal agents” value (Histoplasma duboisii) was “yes”. For the same compound, the “Efficacy of various antifungal agents” value (Sporothrix schenckii) was “yes”, the “Efficacy of various antifungal agents” value [1] was “yes” and the “Efficacy of various antifungal agents” value (Trichophyton rubrum) was “yes”.

For `C[C@@H]1[C@H](O)[C@@H](C)/C=C/C=C/C=C/C=C/C=C/C=C/C=C/[C@H](O[C@@H]2O[C@H](C)[C@@H](O)[C@H](N)[C@@H]2O)C[C@@H]2O[C@](O)(C[C@@H](O)C[C@@H](O)[C@H](O)CC[C@@H](O)C[C@@H](O)CC(=O)O[C@H]1C)C[C@H](O)[C@H]2C(=O)O` [Amphotericin], the “Efficacy of various antifungal agents” value (Aspergillus fumigatus) was “yes”, the “Efficacy of various antifungal agents” value (Aspergillus niger) was “yes” and the “Efficacy of various antifungal agents” value (Aspergillus terreus) was “yes”. The “Efficacy of various antifungal agents” value (Blastomyces dermatitidis) was “yes”, the “Efficacy of various antifungal agents” value (Candida species) was “yes” and the “Efficacy of various antifungal agents” value (Coccidioides immitis) was “yes”. For the same compound, the “Efficacy of various antifungal agents” value (Cryptococcus neoformans) was “yes” and the “Efficacy of various antifungal agents” value (Leishmania donovani) was “yes”.

For `C/C(=C\C(=O)OCCCCCCCCC(=O)O)C[C@@H]1OC[C@H](C[C@@H]2O[C@H]2[C@@H](C)[C@H](C)O)[C@@H](O)[C@H]1O` [Bactroban, Mupirocin], the “Efficacy of various antibiotic agents” value (Clostridium perfringens) was “no”, the “Efficacy of various antibiotic agents” value (Acinetobacter baumannii) was “no” and the “Efficacy of various antibiotic agents” value [2] was “no”. The “Efficacy of various antibiotic agents” value (Acinetobacter lwoffii) was “no”, the “Efficacy of various antibiotic agents” value (Bartonella bacilliformis) was “no” and the “Efficacy of various antibiotic agents” value (Bordetella pertussis) was “no”. The “Efficacy of various antibiotic agents” value (Brucella species) was “no”, the “Efficacy of various antibiotic agents” value (Campylobacter jejuni) was “no” and the “Efficacy of various antibiotic agents” value (Citrobacter diversus) was “no”. For the same compound, the “Efficacy of various antibiotic agents” value (Citrobacter freundii) was “no”, the “Efficacy of various antibiotic agents” value (Enterobacter aerogenes) was “no” and the “Efficacy of various antibiotic agents” value (Enterobacter cloacae) was “no”. For the same compound, the “Efficacy of various antibiotic agents” value (Enterobacter sakazakii) was “no”, the “Efficacy of various antibiotic agents” value (Escherichia coli) was “no” and the “Efficacy of various antibiotic agents” value (Francisella tularensis) was “no”. The “Efficacy of various antibiotic agents” value (Haemophilus ducreyi) was “no”, the “Efficacy of various antibiotic agents” value (Haemophilus influenzae) was “no” and the “Efficacy of various antibiotic agents” value [3] was “no”. The “Efficacy of various antibiotic agents” value (Klebsiella oxytoca) was “no”, the “Efficacy of various antibiotic agents” value (Klebsiella pneumoniae) was “no” and the “Efficacy of various antibiotic agents” value (Legionella pneumophila) was “no”. For the same compound, the “Efficacy of various antibiotic agents” value (Moraxella catarrhalis) was “no”, the “Efficacy of various antibiotic agents” value (Morganella morganii) was “no” and the “Efficacy of various antibiotic agents” value (Neisseria gonorrhoeae) was “no”. The “Efficacy of various antibiotic agents” value (Neisseria meningitidis) was “no”, the “Efficacy of various antibiotic agents” value (Proteus mirabilis) was “no” and the “Efficacy of various antibiotic agents” value (Proteus vulgaris) was “no”. For the same compound, the “Efficacy of various antibiotic agents” value (Providencia rettgeri) was “no”, the “Efficacy of various antibiotic agents” value (Providencia stuartii) was “no” and the “Efficacy of various antibiotic agents” value (Pseudomonas aeruginosa) was “no”. For the same compound, the “Efficacy of various antibiotic agents” value (Pseudomonas fluorescens) was “no”, the “Efficacy of various antibiotic agents” value (Rickettsiae) was “no” and the “Efficacy of various antibiotic agents” value (Salmonella typhi) was “no”. The “Efficacy of various antibiotic agents” value (Serratia marcescens) was “no”, the “Efficacy of various antibiotic agents” value (Shigella boydii) was “no” and the “Efficacy of various antibiotic agents” value (Shigella dysenteriae) was “no”. The “Efficacy of various antibiotic agents” value (Shigella flexneri) was “no”, the “Efficacy of various antibiotic agents” value (Shigella sonnei) was “no” and the “Efficacy of various antibiotic agents” value (Vibrio cholerae) was “no”. For the same compound, the “Efficacy of various antibiotic agents” value (Yersinia pestis) was “no”, the “Efficacy of various antibiotic agents” value (Corynebacterium jeikeium) was “no” and the “Efficacy of various antibiotic agents” value [4] was “no”. The “Efficacy of various antibiotic agents” value [5] was “yes”, the “Efficacy of various antibiotic agents” value [6] was “yes” and the “Efficacy of various antibiotic agents” value (Streptococcus pyogenes) was “yes”. The “activity against gram-positive staphylococci and streptococci” value [7] was “excellent activity”.

In the case of `C[C@@H](c1ncncc1F)[C@](O)(Cn1cncn1)c1ccc(F)cc1F` [Voriconazole], the “Efficacy of various antifungal agents” value (Aspergillus fumigatus) is reported as “yes”, the “Efficacy of various antifungal agents” value (Aspergillus niger) is reported as “yes” and the “Efficacy of various antifungal agents” value (Aspergillus terreus) is reported as “yes”. For the same compound, the “Efficacy of various antifungal agents” value (Candida species) was “yes” and the “Efficacy of various antifungal agents” value (Fusarium species) was “yes”.

— patent US20190255086A1, “Compositions and Methods for Treating an Infection” (CMPD Licensing, LLC, priority 2015, published 2019)
